We go through six molecules from ChEMBL document CHEMBL1268952, “Design, synthesis, and evaluation of indolinones as inhibitors of the transforming growth factor β receptor I (TGFβRI)” (J Med Chem, 2010).

Assay [1] has as its target T1, Serine/threonine-protein kinase Sgk1 (Homo sapiens) (UniProt O00141).
T1 sequence (whole entry): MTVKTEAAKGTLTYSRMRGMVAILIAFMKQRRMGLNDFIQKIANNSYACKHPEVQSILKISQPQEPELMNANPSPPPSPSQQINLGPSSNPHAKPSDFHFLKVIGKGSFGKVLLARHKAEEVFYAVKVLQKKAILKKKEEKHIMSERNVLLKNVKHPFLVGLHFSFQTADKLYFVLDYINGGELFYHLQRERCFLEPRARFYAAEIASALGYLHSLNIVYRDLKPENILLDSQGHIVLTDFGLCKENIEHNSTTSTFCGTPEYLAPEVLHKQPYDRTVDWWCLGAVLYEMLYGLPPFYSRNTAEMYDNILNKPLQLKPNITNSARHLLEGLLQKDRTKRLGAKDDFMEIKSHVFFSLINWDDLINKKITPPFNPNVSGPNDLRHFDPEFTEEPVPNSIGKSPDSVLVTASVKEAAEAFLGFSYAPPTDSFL
In words: Inhibition of SGK at 1 uM; values are per cent of control.

In assay [2] the target is Ribosomal protein S6 kinase alpha-5 (Homo sapiens) (UniProt O75582). In words: Inhibition of MSK1 at 1 uM; values are per cent of control.
Assay [3] concerns the target Dual specificity tyrosine-phosphorylation-regulated kinase 1A (Homo sapiens) (UniProt Q13627). In words: Inhibition of DYRK1A at 1 uM; values are per cent of control.
For assay [4], the target named is Rho-associated protein kinase 2 (Homo sapiens) (UniProt O75116). In words: Inhibition of ROCK2 at 1 uM; values are per cent of control.
The nature of assay [5]: Inhibition of PKB at 1 uM; values are per cent of control.
In assay [6] the target is Tyrosine-protein kinase CSK (Homo sapiens) (UniProt P41240). Kind of assay: Inhibition of CSK at 1 uM; values are per cent of control.
Assay [7] addresses Mitogen-activated protein kinase 1 (Homo sapiens) (UniProt P28482). In words: Inhibition of ERK2 at 1 uM; values are per cent of control.
A short description of assay [8]: Inhibition of PKA at 1 uM; values are per cent of control.
The target of assay [9] is Protein kinase C alpha type (Homo sapiens) (UniProt P17252). In words: Inhibition of PKCalpha at 1 uM; values are per cent of control.
The target in assay [10] is T2, Serine/threonine-protein kinase Nek2 (Homo sapiens) (UniProt P51955).
T2 sequence (whole entry): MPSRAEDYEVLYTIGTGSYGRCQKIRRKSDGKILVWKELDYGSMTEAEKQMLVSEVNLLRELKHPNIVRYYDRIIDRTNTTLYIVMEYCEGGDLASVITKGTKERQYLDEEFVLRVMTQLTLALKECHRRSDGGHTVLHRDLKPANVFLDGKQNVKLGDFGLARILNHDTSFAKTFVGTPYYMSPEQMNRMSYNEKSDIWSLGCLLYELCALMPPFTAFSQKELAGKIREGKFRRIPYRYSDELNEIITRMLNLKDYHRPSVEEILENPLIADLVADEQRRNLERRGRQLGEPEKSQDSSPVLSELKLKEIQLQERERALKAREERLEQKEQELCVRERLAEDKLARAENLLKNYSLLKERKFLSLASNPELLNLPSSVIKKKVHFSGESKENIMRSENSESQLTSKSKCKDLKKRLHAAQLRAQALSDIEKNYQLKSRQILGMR
Kind of assay: Inhibition of NEK2A at 1 uM; values are per cent of control.

The nature of assay [11]: Inhibition of CK1 at 1 uM; values are per cent of control.
For assay [12], the target named is Dual specificity mitogen-activated protein kinase kinase 1 (Homo sapiens) (UniProt Q02750). Kind of assay: Inhibition of MKK1A at 1 uM; values are per cent of control.
For assay [13], the target named is Ribosomal protein S6 kinase beta-1 (Homo sapiens) (UniProt P23443). In words: Inhibition of S6K1 at 1 uM; values are per cent of control.
For assay [14], the target named is Mitogen-activated protein kinase 14 (Homo sapiens) (UniProt Q16539). In words: Inhibition of p38alpha at 1 uM; values are per cent of control.
The target of assay [15] is Serine/threonine-protein kinase Nek6 (Homo sapiens) (UniProt Q9HC98). Kind of assay: Inhibition of NEK6 at 1 uM; values are per cent of control.
Assay [16] in a line: Inhibition of CK2 at 1 uM; values are per cent of control.
The target of assay [17] is Dual specificity mitogen-activated protein kinase kinase 1 (Homo sapiens) (UniProt Q02750). Kind of assay: Inhibition of MKK1 at 1 uM; values are per cent of control.
Assay [18] can be described thus: Inhibition of AMPK at 1 uM; values are per cent of control.
Assay [19] concerns the target T3, Serine/threonine-protein kinase Chk1 (Homo sapiens) (UniProt O14757).
T3 sequence (whole entry): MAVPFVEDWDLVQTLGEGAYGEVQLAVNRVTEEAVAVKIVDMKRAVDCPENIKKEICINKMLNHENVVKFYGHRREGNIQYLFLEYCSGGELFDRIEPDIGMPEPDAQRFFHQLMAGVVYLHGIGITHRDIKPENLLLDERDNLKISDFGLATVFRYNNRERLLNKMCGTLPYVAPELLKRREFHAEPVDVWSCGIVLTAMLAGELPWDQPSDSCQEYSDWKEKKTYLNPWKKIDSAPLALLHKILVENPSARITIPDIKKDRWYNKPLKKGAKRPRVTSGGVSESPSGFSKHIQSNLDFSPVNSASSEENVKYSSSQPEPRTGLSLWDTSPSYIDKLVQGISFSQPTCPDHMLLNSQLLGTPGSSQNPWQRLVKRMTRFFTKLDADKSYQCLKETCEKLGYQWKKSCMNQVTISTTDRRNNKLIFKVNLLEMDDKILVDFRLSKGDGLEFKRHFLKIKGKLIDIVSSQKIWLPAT
In words: Inhibition of CHK1 at 1 uM; values are per cent of control.

For assay [20], the target named is Mitogen-activated protein kinase 8 (Homo sapiens) (UniProt P45983). Kind of assay: Inhibition of SAPK1c at 2 uM.
Sequence of Mitogen-activated protein kinase 8 (Homo sapiens) (P45983 whole entry): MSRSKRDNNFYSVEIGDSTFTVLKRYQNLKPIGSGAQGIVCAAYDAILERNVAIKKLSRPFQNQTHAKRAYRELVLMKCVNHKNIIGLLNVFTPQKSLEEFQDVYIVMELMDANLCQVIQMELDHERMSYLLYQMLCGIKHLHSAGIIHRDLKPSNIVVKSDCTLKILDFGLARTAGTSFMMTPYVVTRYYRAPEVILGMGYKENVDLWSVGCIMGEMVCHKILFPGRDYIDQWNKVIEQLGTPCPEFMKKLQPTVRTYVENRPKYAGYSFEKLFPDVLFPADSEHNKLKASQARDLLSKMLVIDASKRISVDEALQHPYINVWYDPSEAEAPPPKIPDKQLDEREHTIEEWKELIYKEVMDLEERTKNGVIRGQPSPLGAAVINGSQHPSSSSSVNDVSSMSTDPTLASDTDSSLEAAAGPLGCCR

Sequence of Serine/threonine-protein kinase Nek6 (Homo sapiens) (Q9HC98 whole entry): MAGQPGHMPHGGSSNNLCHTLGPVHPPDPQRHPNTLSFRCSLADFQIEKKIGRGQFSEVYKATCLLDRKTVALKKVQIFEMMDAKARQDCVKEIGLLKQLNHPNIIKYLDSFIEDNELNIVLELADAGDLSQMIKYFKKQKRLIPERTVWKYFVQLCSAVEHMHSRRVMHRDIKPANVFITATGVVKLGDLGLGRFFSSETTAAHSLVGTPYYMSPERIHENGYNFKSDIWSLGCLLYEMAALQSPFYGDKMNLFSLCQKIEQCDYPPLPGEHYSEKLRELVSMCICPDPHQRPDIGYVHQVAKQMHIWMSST
Sequence of Ribosomal protein S6 kinase beta-1 (Homo sapiens) (P23443 whole entry, looked up): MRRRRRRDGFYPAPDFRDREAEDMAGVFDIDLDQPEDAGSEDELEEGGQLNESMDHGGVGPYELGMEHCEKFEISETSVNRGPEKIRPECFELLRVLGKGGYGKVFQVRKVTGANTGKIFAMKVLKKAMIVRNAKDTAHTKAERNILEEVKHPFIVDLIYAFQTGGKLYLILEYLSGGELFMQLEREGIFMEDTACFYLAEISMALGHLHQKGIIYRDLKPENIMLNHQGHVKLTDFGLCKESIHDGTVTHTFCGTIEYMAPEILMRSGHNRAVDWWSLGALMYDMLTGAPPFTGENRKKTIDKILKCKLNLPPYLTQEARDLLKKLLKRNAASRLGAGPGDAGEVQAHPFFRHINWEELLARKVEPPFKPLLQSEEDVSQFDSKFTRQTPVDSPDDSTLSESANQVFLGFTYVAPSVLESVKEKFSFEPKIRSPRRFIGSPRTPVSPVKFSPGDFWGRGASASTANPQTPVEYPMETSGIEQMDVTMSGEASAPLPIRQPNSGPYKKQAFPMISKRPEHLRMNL
Sequence of Dual specificity mitogen-activated protein kinase kinase 1 (Homo sapiens) (Q02750 whole entry): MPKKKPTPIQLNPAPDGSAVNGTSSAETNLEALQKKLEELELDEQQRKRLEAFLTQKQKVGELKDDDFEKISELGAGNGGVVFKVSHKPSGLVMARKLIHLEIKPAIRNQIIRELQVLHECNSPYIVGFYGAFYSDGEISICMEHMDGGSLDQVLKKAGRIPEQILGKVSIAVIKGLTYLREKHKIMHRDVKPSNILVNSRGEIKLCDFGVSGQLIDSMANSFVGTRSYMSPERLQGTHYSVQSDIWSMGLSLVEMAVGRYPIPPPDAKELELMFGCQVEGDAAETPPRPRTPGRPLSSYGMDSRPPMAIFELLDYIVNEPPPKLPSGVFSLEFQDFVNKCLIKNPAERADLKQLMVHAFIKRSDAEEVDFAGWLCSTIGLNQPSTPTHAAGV
Sequence of Mitogen-activated protein kinase 1 (Homo sapiens) (P28482 whole entry): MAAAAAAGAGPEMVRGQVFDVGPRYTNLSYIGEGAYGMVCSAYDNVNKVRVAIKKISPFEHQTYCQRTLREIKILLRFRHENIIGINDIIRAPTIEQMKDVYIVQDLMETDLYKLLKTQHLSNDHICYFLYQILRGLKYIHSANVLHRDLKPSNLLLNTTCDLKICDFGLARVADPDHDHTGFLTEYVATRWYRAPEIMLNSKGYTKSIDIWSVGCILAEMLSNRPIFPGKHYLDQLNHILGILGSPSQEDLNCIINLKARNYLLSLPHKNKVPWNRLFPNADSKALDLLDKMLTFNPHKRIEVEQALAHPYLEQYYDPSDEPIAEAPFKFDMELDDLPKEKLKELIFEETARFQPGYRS
Sequence of Mitogen-activated protein kinase 14 (Homo sapiens) (Q16539 whole entry): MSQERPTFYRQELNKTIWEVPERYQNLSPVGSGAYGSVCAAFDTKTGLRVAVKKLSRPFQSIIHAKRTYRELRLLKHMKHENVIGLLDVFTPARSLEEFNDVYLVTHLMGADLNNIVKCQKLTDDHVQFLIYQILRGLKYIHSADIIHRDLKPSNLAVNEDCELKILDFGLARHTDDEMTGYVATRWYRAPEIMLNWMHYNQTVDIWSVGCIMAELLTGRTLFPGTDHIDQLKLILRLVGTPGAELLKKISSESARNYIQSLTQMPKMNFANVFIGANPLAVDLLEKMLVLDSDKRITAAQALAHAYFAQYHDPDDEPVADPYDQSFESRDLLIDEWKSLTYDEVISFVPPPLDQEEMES
Sequence of Tyrosine-protein kinase CSK (Homo sapiens) (P41240 2-450 limits assumed): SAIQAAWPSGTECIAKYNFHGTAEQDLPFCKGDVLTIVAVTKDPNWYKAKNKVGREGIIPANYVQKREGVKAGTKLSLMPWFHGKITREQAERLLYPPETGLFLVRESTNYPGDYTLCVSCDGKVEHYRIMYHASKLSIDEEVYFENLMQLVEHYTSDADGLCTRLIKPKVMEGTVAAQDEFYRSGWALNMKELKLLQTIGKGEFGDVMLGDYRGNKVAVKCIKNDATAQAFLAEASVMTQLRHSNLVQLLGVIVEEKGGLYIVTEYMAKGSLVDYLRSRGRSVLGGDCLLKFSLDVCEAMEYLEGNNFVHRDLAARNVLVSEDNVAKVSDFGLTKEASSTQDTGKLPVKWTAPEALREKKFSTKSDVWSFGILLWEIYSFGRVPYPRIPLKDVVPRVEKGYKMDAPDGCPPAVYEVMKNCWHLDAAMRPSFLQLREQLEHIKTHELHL
Sequence of Ribosomal protein S6 kinase alpha-5 (Homo sapiens) (O75582 whole entry, looked up): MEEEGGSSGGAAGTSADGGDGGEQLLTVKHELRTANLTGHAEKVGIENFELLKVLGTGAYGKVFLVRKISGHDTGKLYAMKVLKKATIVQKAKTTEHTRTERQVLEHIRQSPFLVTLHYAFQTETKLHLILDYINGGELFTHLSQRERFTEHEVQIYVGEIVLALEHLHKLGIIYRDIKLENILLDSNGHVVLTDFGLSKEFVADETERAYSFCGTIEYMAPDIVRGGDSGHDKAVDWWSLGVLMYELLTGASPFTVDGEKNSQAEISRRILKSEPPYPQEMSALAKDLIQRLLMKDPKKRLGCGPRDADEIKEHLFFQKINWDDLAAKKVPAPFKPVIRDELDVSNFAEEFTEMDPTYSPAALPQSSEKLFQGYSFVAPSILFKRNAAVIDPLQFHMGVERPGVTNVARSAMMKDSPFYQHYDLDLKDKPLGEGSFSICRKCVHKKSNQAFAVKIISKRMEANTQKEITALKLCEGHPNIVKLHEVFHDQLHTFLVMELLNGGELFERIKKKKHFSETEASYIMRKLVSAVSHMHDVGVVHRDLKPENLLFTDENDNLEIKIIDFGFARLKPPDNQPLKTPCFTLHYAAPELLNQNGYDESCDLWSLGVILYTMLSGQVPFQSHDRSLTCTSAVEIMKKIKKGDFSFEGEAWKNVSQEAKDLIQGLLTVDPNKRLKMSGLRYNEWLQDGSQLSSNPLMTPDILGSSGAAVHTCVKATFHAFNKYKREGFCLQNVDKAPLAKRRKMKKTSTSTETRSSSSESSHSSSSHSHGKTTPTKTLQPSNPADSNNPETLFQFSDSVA

Take `CN(C)C(=O)c1ccc2c(c1)/C(=C(/Nc1ccc(CN3CCCCC3)cc1)c1ccccc1)C(=O)N2`: the residual activity came to 68% in [1]; 36% in [2]; 45% in assay [3]; 79% in [4]; 93% in [5]; 74% in [6]. Besides, the residual activity in assay [7] was found to be 95%; in assay [8], 69%; in [9] it was 28%; in assay [10], 81%; in [11], 95%; in assay [12], 4%. In addition, the residual activity in assay [13] stood at 76%; in assay [14], 91%; in assay [15] it was 87%; in assay [16], 73%; in assay [17] it was 12%; in [18], 2%. The residual activity in assay [19] came to 8%; in assay [20] it was 90%.
On to `CCN(C)C(=O)c1ccc2c(c1)NC(=O)/C2=C(\Nc1ccc(CN2CCCCC2)cc1)c1ccccc1`, for which the residual activity in [1] stood at 123%; in [2], 92%; in assay [3], 88%; in [4], 88%; in assay [5], 97%; in [6], 72%. Further, the residual activity turned out to be 96% in assay [7]; 96% in assay [8]; 88% in assay [9]; 96% in [10]; 108% in assay [11]; 47% in [12]. The residual activity in assay [13] amounted to 96%; in [14], 92%; in [15], 88%; in [16], 98%; in [17], 48%; in [18], 80%. In addition, the residual activity came out at 74% in [19] and 89% in [20].
As for `O=C1Nc2ccccc2/C1=C(/Nc1ccc(CN2CCCCC2)cc1)c1ccccc1`, the residual activity in assay [1] amounted to 20%; in assay [2], 8%; in assay [3], 18%; in [4], 54%; in assay [5] it was 88%; in assay [6], 32%. The residual activity in assay [7] stood at 77%; in assay [8], 12%; in assay [9], 29%; in [10], 39%; in [11], 17%; in assay [12], 0%. Also, the residual activity in assay [13] was 12%; in assay [14], 96%; in assay [15], 86%; in assay [16], 90%; in [17], 4%; in assay [18] it was 4%. Further, the figures for the residual activity in assay [19] and in assay [20] were 6% and 8%, respectively.
Consider `CCNCc1ccc(N/C(=C2\C(=O)Nc3cc(C(=O)N(C)CC)ccc32)c2ccccc2)cc1`, for which the residual activity in assay [1] worked out at 106%; in assay [2], 83%; in assay [3], 86%; in assay [4] it was 80%; in [5] it was 92%; in assay [6], 78%. In addition, the residual activity in assay [7] worked out at 87%; in assay [8], 96%; in assay [9], 85%; in [10], 72%; in [11], 90%; in [12], 50%. Besides, the residual activity in assay [13] stood at 89%; in assay [14], 85%; in [15], 92%; in assay [16], 86%; in assay [17] it was 61%; in assay [18], 81%. Besides, the results for the residual activity in assay [19] and in assay [20] were 85% and 91%, respectively.
As to `CCNC(=O)c1ccc2c(c1)NC(=O)/C2=C(\Nc1ccc(CN(C)C)cc1)c1ccccc1`, the residual activity was found to be 124% in [1]; 104% in [2]; 105% in assay [3]; 95% in [4]; 106% in assay [5]; 96% in assay [6]. Besides, the residual activity in [7] is 98%; in assay [8], 90%; in assay [9] it was 89%; in assay [10] it was 98%; in assay [11], 102%; in [12], 93%. Besides, the residual activity in assay [13] came out at 101%; in [14], 121%; in assay [15], 123%; in [16], 95%; in assay [17], 59%; in assay [18] it was 85%. The residual activity came out at 84% in assay [19] and 99% in assay [20].
For `CCNC(=O)c1ccc2c(c1)NC(=O)/C2=C(\Nc1ccc(N(CCN(C)C)S(C)(=O)=O)cc1)c1ccccc1`, the residual activity stood at 107% in assay [1]; 105% in assay [2]; 96% in [3]; 88% in assay [4]; 90% in [5]; 83% in assay [6]. Besides, the residual activity in [7] turned out to be 104%; in [8] it was 75%; in [9] it was 100%; in assay [10], 70%; in [11] it was 100%; in assay [12], 80%. Besides, the residual activity was determined as 100% in assay [13]; 110% in assay [14]; 118% in [15]; 94% in [16]; 53% in assay [17]; 74% in [18]. Moreover, the residual activity is 51% in [19] and 105% in [20].
